Key:
[1] = background; in words; cited from earlier work
[2] = test system: polyarthritis induced by Mycobacterium butyricum or tuberculosis in rats; details: rat, oral 25.0 mg/kg daily, Table 3 group b
Experimental: Polyarthritis is induced in groups of 6-10 Sprague-Dawley rats weighing between 180-220 g. by a subcutaneous injection into the right paw of dessicated Mycobacterium butyricum or tuberculosis (0.5 mg/0.1 ml.) suspended in light mineral oil. […] Both hind paw volumes (ml.) are measured by mercury plethysmograph on day 0 or at the time of injection of the complete adjuvant. Increases in paw volume (viz. edema) are determined for both paws on days 4 and 16. The change in body weight from day 0 to day 16 is also calculated. Statistical analysis of differences in paw edemas and body weight is performed by using the unpaired. Student's t-test.

[3] = test system: carrageenan-induced edema in the hind paw of the rat; assay: rat carrageenan edema test (hind paw); assay type: in vivo, rat (male Sprague-Dawley); details: Table 1 group f; for Change in paw volume (ml) from 0-3 hr: mean ± S.E.; for % Change in paw edema: vs control
Experimental: Vehicle alone is administered as a control. Sixty minutes after drug administration edema is induced by an injection of 0.1 ml. of a 1% carrageenan solution is saline into the subplantar tissue of the rat's right hind paw. Two minutes later, paw volume is measured volumetrically with a plethysmograph and again 3 hours later. The mean volume of swelling for the control group is calculated and compared to the test groups. Percent change in paw edema is calculated and analyzed statistically (unpaired, Student's t-test).

CCCCC1C(=O)N(c2ccccc2)N(c2ccccc2)C1=O [Phenylbutazone, phenylbutazone, reference compound]
bone marrow depression [1]: can cause bone marrow depression
% Change of Left Paw Edema at Day 16 [2]: -39%
% Change of Right Paw Edema at Day 4 [2]: -44%
Change In Body Weight (mean ± S.E.) 0-16 days [2]: 24.0 ± 6.3
Increase in Left Paw Volume (ml.) 0-16 days ([2]; mean ± S.E.): 0.45 ± .13 mL
Increase in Right Paw Volume (ml.) 0-4 days ([2]; mean ± S.E.): 1.04 ± .05 mL

COC(=O)C=C1c2ccccc2C=Cc2ccccc21 [MDCHA, Methyl(5H-dibenzo[a,d]cyclohepten-5-ylidene)acetate]
Change in paw volume (ml) from 0-3 hr ([3]; oral 60 mg/kg): 0.68 ± 0.08 mL
% Change in paw edema ([3]; oral 60 mg/kg): -8%
Change in paw volume (ml) from 0-3 hr ([3]; oral 120 mg/kg): 0.59 ± 0.08 mL
% Change in paw edema ([3]; oral 120 mg/kg): -20%
Change in paw volume (ml) from 0-3 hr ([3]; oral 240 mg/kg): 0.68 ± 0.10 mL
% Change in paw edema ([3]; oral 240 mg/kg): -8%
Change in paw volume (ml) from 0-3 hr ([3]; oral 480 mg/kg): 0.59 ± 0.07 mL
% Change in paw edema ([3]; oral 480 mg/kg): -20%

Source: patent publication US4267192A, “Method for treating inflammation” (priority 1980, dated 1981)
